Measurements taken from patent US9333152B2, “Peptides which inhibit activated receptors and their use in cosmetic or pharmaceutical compositions” (LIPOTEC, S.A., priority 2011, dated 2016).
“And” between values parts separate entries of the source, which are not always exact repeats. Identical values can stand only once.

How the values were obtained:
PAR-2 = target: T1, PAR-2 (Homo sapiens, UniProt P55085); assay: Inhibition of the release of IL-6 induced by PAR-2 activity in human keratinocytes (ELISA); type: cell-based; details: 48 h, relative to agonist
T1 construct: endogenous in cells; host or cells: human keratinocytes
T1 sequence (P55085 26-397): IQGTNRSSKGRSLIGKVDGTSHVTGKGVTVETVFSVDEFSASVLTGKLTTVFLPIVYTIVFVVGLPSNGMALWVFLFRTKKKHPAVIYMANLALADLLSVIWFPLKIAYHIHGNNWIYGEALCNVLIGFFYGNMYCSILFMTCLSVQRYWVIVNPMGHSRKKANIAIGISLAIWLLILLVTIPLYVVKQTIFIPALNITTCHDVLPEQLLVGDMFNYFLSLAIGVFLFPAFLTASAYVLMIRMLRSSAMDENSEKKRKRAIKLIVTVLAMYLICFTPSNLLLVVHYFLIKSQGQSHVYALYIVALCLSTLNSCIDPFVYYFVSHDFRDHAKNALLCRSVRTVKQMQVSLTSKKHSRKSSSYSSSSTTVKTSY
Method: Human keratinocytes were cultivated in supplemented Epilife® medium until confluence was achieved. The cells were then separated by treatment with trypsin and seeded at a density of 18,000 cells per well in 96-well plates pre-treated with collagen matrix. After 48 hours of incubation in supplemented Epilife® medium at 37° C. in a humidified atmosphere of 5% CO2 a fresh medium was added with different concentrations of the product of the invention together with PAR2 Agonist I at 50 μM. Cells treated with supplemented Epilife® medium were added as a negative control (Control). The cells were incubated for another 48 hours under the same conditions, after which the supernatants were collected and the amount of IL-6 released was determined using the Human IL-6 ELISA Ready-SET-GOI® commercial kit (eBioscience, Inc.) following the supplier's instructions. The absorbance of each well was determined by reading the spectrophotometer Multiskan Ascent Reader at 450 nm correcting for each determination with its corresponding reading at 570 nm. The relative levels of IL-6 were calculated standardized with regard to the absorbance corresponding to the treatment of the cells with the PAR-2 Agonist I (maximum release of IL-6 in this cell model).

[1] = system: sensitization of TRPV1 mediated by PAR-2 activity; assay: Inhibition of sensitization of TRPV1 mediated by PAR-2 activity in sensory neurons in culture; CGRP levels (EIA); type: cell-based; details: rat DRG neurons, 15 min, PAR-2 agonist I 30 μM then capsaicin 1 μM
Method: Thus, the effectiveness and potential of the peptides in the inhibition of α-CGRP release due to TRPV-1 sensitization mediated by PAR-2 activity in culture of rat DRG neurons was evaluated.
DRG neurons in culture were incubated with the different treatments at the indicated concentrations in buffer medium HBSS (Hank's Balanced salt solution) for 15 min at 37° C., after which the neurons were sensitized by treatment with the PAR-2 agonist I at 30 μM for 15 min at 37° C. Lastly α-CGRP release was induced by treatment with capsaicin 1 μM for 5 min at 37° C. The supernatants were collected and the amount of α-CGRP released was determined by enzyme immunoassay using the Rat CGRP EIA kit (SPI-Bio, Societe de Pharmacologie et d'Immunologie-BIO, France) following the supplier's instructions. The intensity of the color, determined by reading the absorbency at 405 nm, is proportional to the amount of CGRP released. The relative values of CGRP released were determined by double standardization with regard to the basal release of CGRP of the negative control (cells treated with HBSS) and the maximum releases of CGRP induced by the treatment with the cells with the PAR-2 agonist I and capsaicin.

[2] = system: Reconstructed human epidermis (RHE); assay: Anti-sensitizing potential: IL-8 expression in reconstructed human epidermis (RHE), ELISA; type: cell-based; details: versus placebo composition; allergens cinnamal and farnesol
Description: Cosmetic creams containing parfums normally show allergic reactions due to some allergenic components like cinnamal or farnesol. The purpose of this experiment was to evaluate the anti-sensitizing potential of a cosmetic cream of Example 23 containing cinnamal, farnesol and the peptide Ac-L-Phe-L-Phe-L-Trp-L-Phe-L-His-L-Val-NH2, compared with a placebo cream (composition of Example 23 without the ingredients of phase C). In order to determine the anti-sensitizing potential the level of interleukin-8, IL-8 was measured for both creams in RHE tissues after 24 h of cream application.
Commercial RHE tissues (SkinEthic, Lyon, RHE/S/17) (0.5 cm^2) were treated in triplicate with 15 μg of the composition of Example 23 and the placebo composition over the surface of the tissue. After 24 hours of incubation in growth medium at 37° C. in a humidified atmosphere at 5% CO2, the IL-8 expression in the treated RHE tissues was determined using the ELISA Interleukin detection kit (Invitrogen) following the supplier's instructions. The absorbance was determined by reading the spectrophotometer Synergy MX, Biotek, at 450 nm.

human dermal fibroblasts = assay: Photoprotective effectiveness in human dermal fibroblasts (solar simulation lamp, Neutral Red); type: cell-based; details: 0.01 μg/mL
Method: The human dermal fibroblasts were maintained in culture for 24 hours in […] or phosphate buffered saline (irradiated control, IC) for 1 hour at 37° C. and humidified air with 5% CO2. The cells were then irradiated with a solar simulation lamp with an energy of 37 J/cm^2 at room temperature for 150 min. A control plate was kept in the dark for the same time at room temperature (non-irradiated control, NIC). After the irradiation period the cell medium was replaced by a fresh one and the cells were incubated for another 24 hours. Cell viability was determined by Neutral Red dye, measuring the optical density at 540 nm in a spectrophotometer, standardizing the values of each simple with regard to the cell viability of the non-irradiated control sample (CVNIC).

[3] = system: human epidermal keratinocytes; assay: Induction of healing in human epidermal keratinocytes in culture (cell-free area closure); type: cell-based; details: 48 h, (A0-A48)/A0
Method: Human keratinocytes were cultivated in DMEM supplemented with fetal bovine serum (FBS) until confluence was achieved. The cells were then separated using trypsin and were seeded at a density of 50,000 cells per well in 48-well plates. After 48 hours of incubation in DMEM at 37° C. in a humidified atmosphere at 5% CO2 a cut in the cultivation with a pipette point to create an area without cells simulating an injury and photographs were taken of said area with a Zeiss Axiovert 40 CFL microscope equipped with a AxioCam MRc5 camera, calculating the area of the zone without cells using the (A0) equipment software. A fresh medium was then added with different concentrations of the product of the invention. Cells treated with DMEM as a negative control were used, and cells treated with DMEM and FBS as the positive healing control. The cells were incubated for another 48 hours under the same conditions to enable cell migration in the injury area, after which photographs were taken of the injury area once again and the corresponding areas of the zones without cells were calculated (A48).
The healing percentage was calculated as the ratio of the reduction to the area without cells after 48 hours and the area without cells before incubation with the peptide [(A0-A48)/A0].

[4] = system: human epidermal keratinocytes; assay: Proliferation of human epidermal keratinocytes in culture (calcein-AM); type: cell-based; details: 24 h, (T-C)/C
Method: Cell proliferation was evaluated by a fluorescence-based cell viability method, in which the live cells are distinguished from the dead cells by the enzymatic conversion of calcein-AM to its fluorescent form.
Human keratinocytes were cultivated in DMEM supplemented with fetal bovine serum (FBS) until confluence was achieved. The cells were then separated using trypsin and were seeded at a density of 100,000 cells per well in 96-well plates. After 24 hours of incubation in DMEM at 37° C. in a humidified atmosphere at 5% CO2 a fresh medium was added with different concentrations of the product of the invention. Cells treated with DMEM as a negative control were used. The cells were incubated for another 24 hours under the same conditions and the medium was substituted by 100 μl of calcein-AM (Molecular Probes) at 0.4 μM diluted in phosphate buffered saline (PBS). After 30 minutes of incubation at 37° C. the fluorescence was measured at excitation 485 nm and emission 530 nm in a plate reader (Genios, Tecan). The total growth percentage was calculated as T/C×100 wherein T is the fluorescence of the wells treated with the peptides of the invention and C the fluorescence of the control wells treated with DMEM.

[5] = In vivo study of skin hydration (Corneometer CM 825, legs); set-up: species or system human; details: versus placebo composition
Method: A comparative in vivo study of the hydrating capacity of the skin of the cosmetic composition in example 22 and its placebo composition, which contained the same ingredients and in the same percentages as the composition of example 22, except the peptide of the invention, Ac-L-Phe-L-Phe-L-Trp-L-Phe-L-His-L-Val-NH2, which was substituted by water.
The measurements of this study were carried out after the test persons were acclimatized for 45 minutes in a bioclimatic room (22° C.; 60% relative humidity) and with the purpose of maintaining the temperature and humidity constant during the measuring. The measurements of skin hydration were carried out on the legs using a Corneometer® CM 825 (Courage & Khazaka, Germany). […]
All the volunteers applied the placebo composition on their right leg and the cosmetic composition from Example 22 on their left legs twice a day for 4 weeks, always applying the placebo composition to the right leg and the composition from example 22 to the left leg. […] Skin measurement values were measured at three different places within the respective testing areas. The recorded values were averaged. […]

[6] = peptide 0.1 mg/mL with PAR2 Agonist I 50 μM
[7] = peptide 0.5 mg/mL with PAR2 Agonist I 50 μM

| Substance | % IL-6 (PAR-2; [6]) | % IL-6 (PAR-2; [7]) | % CGRP ([1]; peptide 25 μg/mL) | % CGRP ([1]; peptide 0.5 mg/mL) | IL-8 expression / release of cytokines (in words) [2] | % PHOTOPROTECTIVE EFFECTIVENESS (human dermal fibroblasts; (CVi-CVIC)/CVIC versus irradiated control) | CELL VIABILITY (%) (human dermal fibroblasts; irradiated 37 J/cm^2, 150 min, relative to non-irradiated control) | % Healing ([3]; 25 μg/mL) | % Healing ([3]; 0.5 mg/mL) | % Stimulation of proliferation ([4]; 10 μg/mL) | % Stimulation of proliferation ([4]; 25 μg/mL) | skin hydration (in words) [5] |
| --- | --- | --- | --- | --- | --- | --- | --- | --- | --- | --- | --- | --- |
| Ac-FFWDIV-NH2 [Ac-L-Phe-L-Phe-L-Trp-L-Asp-L-Ile-L-Val-NH2] | 36.2% | 11.5% | 78.7% | 20.3% | – | – | – | – | – | – | – | – |
| Ac-FFWFHV-NH2 [Ac-L-Phe-L-Phe-L-Trp-L-Phe-L-His-L-Val-NH2] | 61.8% | 30.4% | 58.9% | 17.7% | highly counteract the release of cytokines induced by cosmetic allergens | 105.9% | 37.1% | 40.0% | 45% and 44.8% | 21.3% | 23% and 23.2% | improves the skin's hydration in vivo |
| Ac-FMWFHV-NH2 [Ac-L-Phe-L-Met-L-Trp-L-Phe-L-His-L-Val-NH2] | 84.6% | 42.3% | 70.1% | 20.2% | – | – | – | – | – | – | – | – |
